The values that follow come from patent US11530181B2, “IL-6 inhibitors and methods of treatment” (University of Florida Research Foundation, Incorporated, priority 2018, dated 2022).

For assay [1], the system named is SUM159 breast cancer cell line. In words: MTT cell viability assay, SUM159. The class given is cell-based, human. Particulars: for inhibitory effect compared to parent compound LLM4: SUM159, 25 μM, 48 hours. The protocol: (§1) Human breast cancer cell lines MCF7, MDA-MB-231 and SUM159 were maintained in Dulbecco's modified Eagle medium (DMEM). Human pancreatic cancer cell line BxPC-3 was maintained in RPMI 1640 medium. Human pancreatic cancer cell line Capan-1 was maintained in Iscove's Modified Dulbecco's Medium (IMEM). All media were supplemented with 10% FBS and 1% penicillin/streptomycin, and cells were incubated in a humidified 37° C. incubator with 5% CO2. PE/CA-PJ49 cell line was purchased from external sources and maintained according to manufacturer's protocol.
(§2) Cell viability was evaluated by using the MTT assay in triple replicates in one experiment and repeated for three times. Cancer cells were seeded in 96-well plates at a density of 3,000 cells per well. The cells were incubated at 37° C. for a period of 24 hours. Escalating concentrations of IL-6/gp130 inhibitors were added in triplicate to the plates in the presence of 10% FBS. After incubation for 48 or 72 hours, a stock solution of MTT (0.5 mg/ml) was then added to each well containing the treated cells, followed by incubation at 37° C. for 3 h. After removal of medium, the MTT dye was dissolved with spectrophotometric grade DMSO and the absorbance was read at 570 nm. The IC50 value is determined by interpolation based on the absorbance value halfway between positive and negative controls.
(Tetrazolium assays rely on reduction of a dye to a coloured formazan, in cell work by metabolically active cells.)

Assay [2] relates to BxPC-3 pancreatic cancer cell line. In words: MTT cell viability assay, BxPC-3. The class given is cell-based, human. Particulars: for IC50: Homo sapiens, BxPC-3, Table 7; for inhibitory effect compared to parent compound LLM4: BxPC-3, 25 μM, 48 hours. The method, then:
as §1
as §2, with “controls. In the experiment of LLM4 showing higher efficacy in cancer cells with higher levels of IL-6, instead of using medium with 10% FBS, DMEM with 0% FBS was used in order to eliminate the influence of trace amounts of growth factors and cytokines in FBS.” for “controls.”

The subject of assay [3] is IL-6 induced STAT3 phosphorylation. In words: Western blot, IL-6 induced STAT3 phosphorylation in MCF7. The class given is cell-based, human. The settings on record: MCF7, 1-4 μM, 5 h, IL-6 50 ng/ml. The protocol: Cells were harvested and lysed in cold radioimmunoprecipitation assay (RIPA) lysis buffer containing proteasome inhibitor cocktail and phosphatase inhibitor cocktail. The protein concentrations were determined using the BCA Protein Assay kit. After adding the loading buffer and boiling at 95° C. for 10 minutes, equivalent amounts of proteins were loaded on and separated by SDS-PAGE, and then were transferred to PVDF membranes. Membranes were probed with primary antibodies (1:1000) against phospho-STAT3 (Tyr705), STAT3, phospho-STAT1 (Tyr701), STAT1, phospho-STAT6 (Tyr 641), STAT6, and GAPDH, respectively, and horseradish peroxidase (HRP)-conjugated secondary antibody (1:10000) (Cell Signaling Technology, Beverly, Mass.). Membranes were analyzed using Enhanced Chemiluminescence Plus reagents and either scanned with the Storm Scanner (Amersham Pharmacia Biotech, Inc., Piscataway, N.J.) or imaged with ChemiDoc MP imaging system (Bio-Rad, Hercules, Calif.). For cytokine induction of STAT3 phosphorylation, MCF-7 breast cancer cells were seeded in 10 cm plates (1 million cells per plate) and allowed to adhere overnight followed by serum-starvation. […] After designated hours, LLM-418 treated and untreated cells were stimulated by IL-6, LIF, and OSM (50 ng/mL). The cells were harvested after 30 minutes and analyzed by Western blot.
MCF7 breast cancer cells were seeded in 10 cm plates (1 million cells per plate) and allowed to adhere overnight. The following day, the cells were serum-starved. The cells were then left untreated or treated with LLM4 (5-20 μM). After designated hours, the LLM4 treated and untreated cells were stimulated by IL-6, LIF, OSM, CNTF, CT-1, IL-11, IL-4 or INF-γ (50 ng/ml). The cells were harvested after 30 minutes and analyzed by western blotting.

In another assay the target is T1, gp130-D1-D3 (Homo sapiens, UniProt P40189).
T1 construct: residues 1-301, the numbering system is based on PDB 3L5H, which is the mature form of gp130; tandem TFH purification tag (includes FLAG, as purified on anti-FLAG M2 agarose) (C); made in house; host or cells: Hi5 insect cells (baculovirus; virus generated in sf9)
T1 sequence (P40189 23-323): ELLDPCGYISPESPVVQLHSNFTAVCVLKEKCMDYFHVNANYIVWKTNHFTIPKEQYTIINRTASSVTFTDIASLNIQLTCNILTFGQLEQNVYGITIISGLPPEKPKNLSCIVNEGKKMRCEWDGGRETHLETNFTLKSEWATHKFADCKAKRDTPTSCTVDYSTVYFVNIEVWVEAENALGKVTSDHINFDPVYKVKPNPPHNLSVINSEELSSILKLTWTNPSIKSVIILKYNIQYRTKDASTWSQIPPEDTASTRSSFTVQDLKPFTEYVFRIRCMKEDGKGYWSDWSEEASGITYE
In words: SPR direct binding to immobilized gp130-D1-D3 (CM5 chip). The settings on record: for Kd: SPR, gp130-D1-D3, linear regression at low concentrations, 25% Rmax; for ΔGexp: experimental binding energy from SPR KD.

For assay [4], the system named is multiple myeloma cell line U266. The assay can be described thus: Cell viability assay, U266. The class given is cell-based, human. The protocol:
as §2, with “controls. In the experiment of LLM4 showing higher efficacy in cancer cells with higher levels of IL-6, instead of using medium with 10% FBS, DMEM with 0% FBS was used in order to eliminate the influence of trace amounts of growth factors and cytokines in FBS.” for “controls.”
It was reported in multiple myeloma cell line U266 that IL-6 is also elevated and of great importance for cancer progression [Jernberg W, Pettersson M, Carlsson M, et al. Increase in interleukin 6 (IL-6) and IL-6 receptor expression in a human multiple myeloma cell line, U-266, during long-term in vitro culture and the development of a possible autocrine IL-6 loop 1. Leukemia. 1992, 4, 310-318]. These novel IL-6/gp130 inhibitors were tested in U266 cells at a concentration of 25 μM for an incubation time of 48 and 72 hours. MDL16 and LLM4 were used as control compounds.

Another assay deals with PE/CA-PJ49 cell line. In words: Inhibitory activity in PTPRD mutant cell line PE/CA-PJ49. The class given is cell-based. The settings on record: PE/CA-PJ49, 48 h. The protocol: as §1
as §2, with “controls. In the experiment of LLM4 showing higher efficacy in cancer cells with higher levels of IL-6, instead of using medium with 10% FBS, DMEM with 0% FBS was used in order to eliminate the influence of trace amounts of growth factors and cytokines in FBS.” for “controls.”
Protein tyrosine […] receptor type D (PTPRD) is reported to serve as a tumor suppressor in various human cancers [Peyser et. al, PLoS One (2015) 10(8)]. PTPRD mutation is also known to be associated with increased STAT3 expression [Peyser et. al, PLoS One (2015) 10(8)]. Table 8 captures the inhibitory activities of various compounds in the PTPRD mutant cell line, PE/CA-PJ49.

Assay [5] deals with MDA-MB-231 breast cancer cell line. The assay can be described thus: MTT cell viability assay, MDA-MB-231. The class given is cell-based, human. Particulars: MDA-MB-231 (medium IL-6), 48 h, 0% FBS medium. The protocol: as §1
as §2, with “Escalating concentrations of IL-6/gp130 inhibitors were added in triplicate to the plates in the presence of 10% FBS.” left out, “controls. […]” for “controls.”

Assay [6] relates to MCF7 breast cancer cell line. In words: MTT cell viability assay, MCF7. The class given is cell-based, human. The settings on record: MCF7 (low IL-6), 48 h, 0% FBS medium. The protocol:
as §1
as §2, with “Escalating concentrations of IL-6/gp130 inhibitors were added in triplicate to the plates in the presence of 10% FBS.” left out, “controls. […]” for “controls.”

Assay [7] deals with SUM159 breast cancer cell line. The assay can be described thus: MTT cell viability assay, SUM159. The class given is cell-based, human. The settings on record: SUM159 (high IL-6), 48 h, 0% FBS medium.
In assay [8] the target is Extracellular Domain of gp130 (Homo sapiens, UniProt P40189). Particulars: literature value; read-out: reported binding affinity; cited from earlier work.
Sequence of Extracellular Domain of gp130 (P40189 23-619 limits assumed): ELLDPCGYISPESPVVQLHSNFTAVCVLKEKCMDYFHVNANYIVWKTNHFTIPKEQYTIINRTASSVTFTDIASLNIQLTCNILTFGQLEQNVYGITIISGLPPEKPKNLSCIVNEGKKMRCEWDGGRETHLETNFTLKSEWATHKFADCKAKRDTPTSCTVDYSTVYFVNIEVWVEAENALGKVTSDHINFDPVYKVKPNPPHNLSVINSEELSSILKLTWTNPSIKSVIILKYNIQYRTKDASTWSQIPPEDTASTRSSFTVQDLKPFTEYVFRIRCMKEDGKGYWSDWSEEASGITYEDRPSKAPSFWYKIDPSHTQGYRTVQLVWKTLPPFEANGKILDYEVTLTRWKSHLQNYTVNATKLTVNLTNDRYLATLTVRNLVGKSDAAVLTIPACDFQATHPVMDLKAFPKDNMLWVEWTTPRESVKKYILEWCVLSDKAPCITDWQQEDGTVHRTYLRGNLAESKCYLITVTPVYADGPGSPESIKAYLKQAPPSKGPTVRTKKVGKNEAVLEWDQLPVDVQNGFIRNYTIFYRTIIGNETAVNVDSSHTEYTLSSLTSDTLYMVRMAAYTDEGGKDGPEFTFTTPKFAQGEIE
Setting [9] is: SUM159 human breast cancer cell line, MTT.

As for `Cc1c(-c2ccc(O)cc2)n(Cc2ccc(OCCN3CCCCCC3)cc2)c2ccc(O)cc12` [Bazedoxifene, reference compound], the IC50 (commonly the point on the concentration scale where inhibition reaches its midpoint) in assay [1] (Homo sapiens, SUM159, Table 7) was 4.6 µM; in assay [2], 1.8 µM.

In [1] (setting [9]), `O=C(Nc1cc(F)ccc1-n1cccc1)c1ccc(OCCN2CCCCC2)cc1` [LLM3, N-(5-fluoro-2-(1H-pyrrol-1-yl)phenyl)-4-(2-(piperidin-1-yl)ethoxy)benzamide] came in with a 50% inhibitory concentration (IC50) of 31.4 ± 4.7 µM.

Regarding `O=C(Nc1cccc(-c2ccn[nH]2)c1)c1cccc(OCCN2CCCCC2)c1` [LLM46, N-(3-(1H-pyrazol-5-yl)phenyl)-3-(2-(piperidin-1-yl)ethoxy)benzamide], the “inhibitory effect compared to parent compound LLM4” value in [1] and in [2] was “comparable or slightly better at inhibition” throughout.

For the compound `O=C(Nc1cc(F)ccc1-n1cccc1)c1ccc(OCCCCc2ccccc2)cc1` [LLM7, N-(5-fluoro-2-(1H-pyrrol-1-yl)phenyl)-4-(4-phenylbutoxy)benzamide], in [1] (Homo sapiens, SUM159, SUM159 human breast cancer cell line, MTT), the IC50 was determined as 58.7 ± 6.3 µM.

In the case of `O=C(Nc1ccccc1-c1ccn[nH]1)c1ccc(OCCCN2CCCCC2)cc1` [LLM417, N-(2-(1H-pyrazol-5-yl)phenyl)-4-(3-(piperidin-1-yl)propoxy)benzamide], the “inhibitory effect compared to parent compound LLM4” value in [1] and in assay [2] was “comparable or slightly better at inhibition” each time.

As to `O=C(Nc1cc(F)ccc1-n1cccc1)c1ccc(OCCc2ccccc2)cc1` [LLM5, N-(5-fluoro-2-(1H-pyrrol-1-yl)phenyl)-4-phenethoxybenzamide], the IC50 in assay [1] (setting [9]) was found to be 64.4 ± 6.9 µM.

Consider `O=C(Nc1cccc(-c2ccn[nH]2)c1)c1ccc(OCCCN2CCCCC2)cc1` [LLM41, N-(3-(1H-pyrazol-5-yl)phenyl)-4-(3-(piperidin-1-yl)propoxy)benzamide], for which the “inhibition of IL-6 induced STAT3 phosphorylation” value in [3] is reported as “inhibited STAT3 phosphorylation stimulated by IL-6 in MCF7 cells in a dose dependent manner”. On gp130-D1-D3, this compound gave a Kd of 21.6 µM. This compound also returned a ΔGexp at gp130-D1-D3 of -6.36 kcal/mol. Further, the IC50 was found to be 5.4 µM in assay [4] (Homo sapiens, U-266, U266, 72 h); 14 µM in [1] (Homo sapiens, SUM159, SUM159, Table 7); 13 µM in [2]. Further, the “inhibitory effect compared to parent compound LLM4” value in assay [4] (U266, 25 μM, 48 and 72 hours) is given as “greater inhibitory effects”; in assay [1] it was “comparable or slightly better at inhibition”; in assay [2], “comparable or slightly better at inhibition”.

As for `CN(C)C(=O)Oc1cccc2c1C(=O)c1cccc(S(N)(=O)=O)c1C2=O` [LLL12B], the midpoint of inhibition in the assay on PE/CA-PJ49 cell line, the IC50, lay at 0.0159 ± 0.00371 µM.

Regarding `O=C(NNc1nc2cc(F)ccc2n2cccc12)c1cnccn1` [SC144, reference compound], the IC50 was determined as 1.22 µM in [5], 4.7 µM in assay [6], 0.691 ± 0.064 µM in the assay on PE/CA-PJ49 cell line and 1.08 µM in assay [7].

On gp130-D1-D3, `CCCCC1=C(C)C(=O)[C@](C)(CN2c3ccccc3[C@]3(O)CCOC23)C1=O` (stereo partly drawn) [MDL-A, Madindoline A, reference compound] displayed a Kd of 330 µM and a ΔGexp of -4.75 kcal/mol. In addition, the Kd in assay [8] was 288 µM.

Regarding `NS(=O)(=O)c1cccc2c1C(=O)c1cccc(O)c1C2=O` [LLL12], in the assay with PE/CA-PJ49 cell line, the IC50 amounted to 0.019 ± 0.00283 µM.
